Source: patent US20140377340A1, “HLA-DR BINDING PEPTIDES AND THEIR USES” (priority 2007, published 2014)

How the values were obtained:
purified HLA DRB1*0101 = biological target: T1, purified HLA DRB1*0101 (Homo sapiens, UniProt P01903+P01911, A100R/D57E/F55L/F60I/F76Y/I96L/L162R/M171V/P40L/Q125E/R42F/V115G/Y59C); assay: HLA-DR radioligand binding inhibition assay, DRB1*0101; details: IC50 nM purified HLA DRB1 *0101, purified HLA DRB1*0101
T1 construct: purified from EBV transformed homozygous cell lines or single MHC allele transfected 721.221, C1R, or fibroblast lines; made in house
Procedure, shortened: (§1)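 Competition binding: 1-10 nM radiolabeled peptide + 1 μM–1 nM HLA-DR, protease inhibitor cocktail, 2 d, RT or 37° C., pH 4–7. LB3.1 capture 3 h in 0.05% NP40/PBS; scintillation counting.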

purified HLA DRB1*0404 = biological target: T2, purified HLA DRB1*0404 (Homo sapiens, UniProt P01903+P01911, A100R/A169T/F76Y/I96L/K127E/L162R/M171V/N62H/P40V/Q125Y/R42H/S133A/S149N/S66Y/V209L/W38E); assay: HLA-DR radioligand binding inhibition assay, DRB1*0404; details: IC50 nM purified HLA DRB1 *0404, purified HLA DRB1*0404
T2 construct: purified from EBV transformed homozygous cell lines or single MHC allele transfected 721.221, C1R, or fibroblast lines; made in house
Procedure, shortened: as §1

purified HLA DRB1*0301 = biological target: T3, purified HLA DRB1*0301 (Homo sapiens, UniProt P01903+P01911, A100K/A102G/A103R/A169T/F55Y/I96L/K41T/L162R/M171V/P40S/Q125H/Q178H/Q39Y/R42S/S66N/T106N/T262R/W38E/Y61H); assay: HLA-DR radioligand binding inhibition assay, DRB1*0301; details: IC50 nM purified HLA DRB1 *0301, purified HLA DRB1*0301
T3 construct: purified from EBV transformed homozygous cell lines or single MHC allele transfected 721.221, C1R, or fibroblast lines; made in house
Procedure, shortened: as §1

purified HLA DRB1*1101 = biological target: T4, purified HLA DRB1*1101 (Homo sapiens, UniProt P01903+P01911, A100R/A169T/A87E/I96F/K41T/L162R/M171V/P40S/Q125H/Q178H/Q39Y/Q99D/R42S/S66Y/T262R/V115G/W38E); assay: HLA-DR radioligand binding inhibition assay, DRB1*1101; details: IC50 nM purified HLA DRB1 *1101, purified HLA DRB1*1101
T4 construct: purified from EBV transformed homozygous cell lines or single MHC allele transfected 721.221, C1R, or fibroblast lines; made in house
T4 sequence (P01903 26-254, other chains not shown): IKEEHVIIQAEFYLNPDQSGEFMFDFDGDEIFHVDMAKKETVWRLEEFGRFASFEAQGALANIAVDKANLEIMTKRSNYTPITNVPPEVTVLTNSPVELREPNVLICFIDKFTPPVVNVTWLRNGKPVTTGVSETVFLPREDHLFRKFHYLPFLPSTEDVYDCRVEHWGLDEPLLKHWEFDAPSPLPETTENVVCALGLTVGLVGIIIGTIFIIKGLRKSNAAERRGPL
Procedure, shortened: as §1

purified HLA DRB1*0701 = biological target: T5, purified HLA DRB1*0701 (Homo sapiens, UniProt P01903+P01911, A100R/A102G/A103Q/D57E/D86V/E43K/F76Y/K127E/L162R/M171V/P40G/Q125H/Q99D/R33Q/R42Y/R54Q/S133A/S66F/T210M/V115G/Y107V/Y59L/Y89S); assay: HLA-DR radioligand binding inhibition assay, DRB1*0701; details: IC50 nM purified HLA DRB1 *0701, purified HLA DRB1*0701
T5 construct: purified from EBV transformed homozygous cell lines or single MHC allele transfected 721.221, C1R, or fibroblast lines; made in house
Procedure, shortened: as §1

purified HLA DRB1*0901 = biological target: T6, purified HLA DRB1*0901 (Homo sapiens, UniProt P01903+P01911, A100R/A103E/D57H/D86V/F55Y/F60I/F76Y/I96F/K127E/L162R/M171V/P40D/Q125H/Q99R/R33Q/R42F/S133A/S66N/T210M/V115G/W38K/Y107V/Y59G/Y89S); assay: HLA-DR radioligand binding inhibition assay, DRB1*0901; details: IC50 nM purified HLA DRB1 *0901, purified HLA DRB1*0901
T6 construct: purified from EBV transformed homozygous cell lines or single MHC allele transfected 721.221, C1R, or fibroblast lines; made in house
Protocol: (§2) Instead, wells of an opaque white 96-well Optiplate (Packard) are coated with 3 μg (100 μl@ 30 μg/ml) of HLA-specific antibody (Ab) that “capture” complexes of radiolabeled MHC and unlabeled peptide transferred from the molecular binding assay plate in 100 μl of 0.05% NP40/PBS. After a 3-hour incubation period, the supernatant is decanted and scintillation fluid (Microscint 20) added. Captured complexes are then measured on a microplate scintillation and luminescence counter (TopCount NXTTM; Packard).
(§3) HLA-DR purification. Fifteen distinct HLA-DR molecules were used in quantitative assays to measure the binding of peptides to solubilized HLA-DR molecules. […] Briefly, columns of inactivated Sepharose CL4B and Protein A Sepharose were used as pre-columns. HLA-DR molecules were captured by passage of lysates over LB3.1 monoclonal antibody (anti-HLA-DRA) columns. Antibody columns were washed with 10 mM Tris-HCL, pH8.0 with 1% (v/v) NP-40, followed by PBS containing 0.4% (w/v) n-octylglucoside.
(§4) Briefly, 1-10 nM of radiolabeled peptide was co-incubated for 2 days at either room temperature or 37° C. with 1 μM to 1 nM purified HLA-DR molecules in the presence of a cocktail of protease inhibitors. Assays were performed at various pH conditions, ranging from pH 4 to pH 7. […] After incubation, the percentage of HLA-DR-bound radioactivity is determined by capturing HLA-DR/peptide complexes on Optiplates (Packard Instruments, Meriden, Conn.) coated with the LB3.1 antibody and determining bound counts per minute using the TopCount microscintillation counter (Packard Instruments).

purified HLA DRB1*1201 = biological target: T7, purified HLA DRB1*1201 (Homo sapiens, UniProt P01903+P01911, A100R/A169T/D57E/D86V/F55L/H45Y/K41T/L162R/M171V/P40S/Q125H/Q178H/Q39Y/Q99D/R42G/S66L/T262R/V114A/V67L/W38E/Y59H/Y61H/Y89S); assay: HLA-DR radioligand binding inhibition assay, DRB1*1201
T7 construct: purified from EBV transformed homozygous cell lines or single MHC allele transfected 721.221, C1R, or fibroblast lines; made in house
Protocol: as §2
as §3, with “n-octylglucoside. […] The pH was reduced to 8.0 and the eluates were concentrated by centrifugation in Centriprep 30 concentrators at 2000 rpm (Amicon, Beverly, Mass.).” for “n-octylglucoside.”
as §4, with “Instruments). […] Competitor peptides are tested in 2-4 complete, independent experiments, at concentrations ranging from […].” for “Instruments).”

purified HLA DRB5*0101 = biological target: T8, purified HLA DRB5*0101 (Homo sapiens, UniProt P01903+Q30154); assay: HLA-DR radioligand binding inhibition assay, DRB5*0101; details: IC50 nM purified HLA DRB5 *0101, purified HLA DRB5*0101
T8 construct: purified from EBV transformed homozygous cell lines or single MHC allele transfected 721.221, C1R, or fibroblast lines; made in house
Procedure, shortened: as §1

purified HLA DRB1*0405 = biological target: T9, purified HLA DRB1*0405 (Homo sapiens, UniProt P01903+P01911, A100R/A169T/D86S/F76Y/I96L/K127E/L162R/M171V/N62H/P40V/Q125Y/R42H/S133A/S149N/S66Y/V115G/V209L/W38E); assay: HLA-DR radioligand binding inhibition assay, DRB1*0405; details: IC50 nM purified HLA DRB1 *0405, purified HLA DRB1*0405
T9 construct: purified from EBV transformed homozygous cell lines or single MHC allele transfected 721.221, C1R, or fibroblast lines; made in house
Procedure, shortened: as §1

purified HLA DRB1*0401 = biological target: T10, purified HLA DRB1*0401 (Homo sapiens, UniProt P01903+P01911, A100K/A169T/F76Y/I96L/K127E/L162R/M171V/N62H/P40V/Q125Y/R42H/S133A/S149N/S66Y/V115G/V209L/W38E); assay: HLA-DR radioligand binding inhibition assay, DRB1*0401; details: IC50 nM purified HLA DRB1 *0401, purified HLA DRB1*0401
T10 construct: purified from EBV transformed homozygous cell lines or single MHC allele transfected 721.221, C1R, or fibroblast lines; made in house
Procedure, shortened: as §1

purified HLA DRB1*0802 = biological target: T11, purified HLA DRB1*0802 (Homo sapiens, UniProt P01903+P01911, A100R/A103L/A169T/F76Y/H45Y/I96F/K41T/L162R/M171V/P40S/Q125H/Q178H/Q39Y/Q99D/R218S/R42G/S66Y/V115G/W38E); assay: HLA-DR radioligand binding inhibition assay, DRB1*0802; details: IC50 nM purified HLA DRB1 *0802, purified HLA DRB1*0802
T11 construct: purified from EBV transformed homozygous cell lines or single MHC allele transfected 721.221, C1R, or fibroblast lines; made in house
Protocol: as §2
as §3, with “n-octylglucoside. […] The pH was reduced to 8.0 and the eluates were concentrated by centrifugation in Centriprep 30 concentrators at 2000 rpm (Amicon, Beverly, Mass.).” for “n-octylglucoside.”
as §4, with “Instruments). […] Competitor peptides are tested in 2-4 complete, independent experiments, at concentrations ranging from […].” for “Instruments).”

purified HLA DRB1*1501 = biological target: T12, purified HLA DRB1*1501 (Homo sapiens, UniProt P01903+P01911); assay: HLA-DR radioligand binding inhibition assay, DRB1*1501
T12 construct: purified from EBV transformed homozygous cell lines or single MHC allele transfected 721.221, C1R, or fibroblast lines; made in house
Procedure, shortened: as §1

purified HLA DRB4*0101 = biological target: T13, purified HLA DRB4*0101 (Homo sapiens, UniProt P01903+P13762, G164S); assay: HLA-DR radioligand binding inhibition assay, DRB4*0101; details: IC50 nM purified HLA DRB4 *0101, purified HLA DRB4*0101
T13 construct: purified from EBV transformed homozygous cell lines or single MHC allele transfected 721.221, C1R, or fibroblast lines; made in house
Procedure, shortened: as §1

purified HLA DRB3*0101 = biological target: T14, purified HLA DRB3*0101 (Homo sapiens, UniProt P01903+P79483); assay: HLA-DR radioligand binding inhibition assay, DRB3*0101; details: IC50 nM purified HLA DRB3 *0101, purified HLA DRB3*0101
T14 construct: purified from EBV transformed homozygous cell lines or single MHC allele transfected 721.221, C1R, or fibroblast lines; made in house
Protocol: as §2
as §3, with “n-octylglucoside. […] The pH was reduced to 8.0 and the eluates were concentrated by centrifugation in Centriprep 30 concentrators at 2000 rpm (Amicon, Beverly, Mass.).” for “n-octylglucoside.”
as §4, with “Instruments). […] Competitor peptides are tested in 2-4 complete, independent experiments, at concentrations ranging from […].” for “Instruments).”

purified HLA DRB1*1302 = biological target: T15, purified HLA DRB1*1302 (Homo sapiens, UniProt P01903+P01911, A100E/A169T/K41T/L162R/M171V/P40S/Q125H/Q178H/Q39Y/Q99D/R42S/S66N/T262R/V115G/W38E/Y61H); assay: HLA-DR radioligand binding inhibition assay, DRB1*1302
T15 construct: purified from EBV transformed homozygous cell lines or single MHC allele transfected 721.221, C1R, or fibroblast lines; made in house
Procedure, shortened: as §1

IC50 (purified HLA DRB1*0101)	IC50 (purified HLA DRB1*0404)	IC50 (purified HLA DRB1*0301)	IC50 (purified HLA DRB1*1101)	IC50 (purified HLA DRB1*0701)	IC50 (purified HLA DRB1*0901)	IC50 (purified HLA DRB1*1201)	IC50 (purified HLA DRB5*0101)	IC50 (purified HLA DRB1*0405)	IC50 (purified HLA DRB1*0401)	IC50 (purified HLA DRB1*0802)	IC50 (purified HLA DRB1*1501)	IC50 (purified HLA DRB4*0101)	IC50 (purified HLA DRB3*0101)	IC50 (purified HLA DRB1*1302)	SMILES
4030 nM	2910 nM	31 nM	> 20000 nM	16800 nM	> 20000 nM	16900 nM	> 20000 nM	> 20000 nM	1640 nM	> 20000 nM					CC[C@H](C)[C@H](NC(=O)[C@@H](NC(=O)[C@@H]1CCCN1C(=O)[C@H](C)N)[C@@H](C)O)C(=O)N[C@@H](CCCNC(=N)N)C(=O)NCC(=O)N[C@@H](CC(=O)O)C(=O)N1CCC[C@H]1C(=O)N[C@@H](CCC(=O)O)C(=O)N[C@@H](CS)C(=O)N[C@@H](Cc1c[nH]cn1)C(=O)N[C@@H](CC(C)C)C(=O)N[C@@H](Cc1ccccc1)C(=O)N[C@@H](Cc1ccc(O)cc1)C(=O)N[C@@H](CC(N)=O)C(=O)O [Peptide 9019.0022]
			> 20000 nM	> 20000 nM	> 20000 nM		> 20000 nM	> 20000 nM		> 20000 nM	> 20000 nM	5310 nM			CC(C)C[C@H](NC(=O)[C@H](Cc1c[nH]cn1)NC(=O)[C@@H](N)CS)C(=O)N[C@@H](Cc1ccccc1)C(=O)N[C@@H](Cc1ccc(O)cc1)C(=O)N[C@@H](CC(N)=O)C(=O)N[C@@H](CCC(=O)O)C(=O)N[C@@H](CCC(N)=O)C(=O)N[C@@H](CCC(N)=O)C(=O)N[C@@H](CCC(=O)O)C(=O)N[C@@H](C)C(=O)N[C@@H](CCCNC(=N)N)C(=O)NCC(=O)N[C@H](C(=O)N[C@@H](Cc1c[nH]cn1)C(=O)O)C(C)C [Peptide 9019.0023]
		64 nM	> 20000 nM	1100 nM	15900 nM	> 20000 nM	4620 nM	3170 nM	95 nM		25 nM	33 nM	> 20000 nM	879 nM	CC[C@H](C)[C@H](NC(=O)[C@H](CS)NC(=O)[C@H](CC(C)C)NC(=O)[C@@H](N)CCCCN)C(=O)N[C@@H](Cc1ccc(O)cc1)C(=O)N[C@H](C(=O)N[C@@H](CC(=O)O)C(=O)N[C@@H](CC(N)=O)C(=O)N[C@@H](CO)C(=O)N[C@H](C(=O)N[C@@H](CCCNC(=N)N)C(=O)N1CCC[C@H]1C(=O)N[C@@H](CCC(=O)O)C(=O)N[C@@H](CCC(=O)O)C(=O)N[C@@H](CC(C)C)C(=O)O)[C@@H](C)CC)[C@@H](C)O [Peptide 9019.0159]
